Results reported in patent publication US12180255B2, “Compositions and methods for derepressing RE1 silencing transcription factor target genes” (Alcamena Stem Cell Therapeutics, LLC, priority 2019, dated 2024).
*1 amine or outer side, *2 acyl side, *3 side chain or, on linkers, in order; H or OH if unused. Bridges are numbered along the chain shown (N, C = ends). Where no end group is shown, it is not given here. mXylylene = c1cc(C[*:1])cc(C[*:2])c1

Tested on: NBFL cells
Assay: BDNF, NGF and KV4.3 transcript levels in NBFL cells dosed with linear or cyclic RPP
Format: cell-based
Conditions: 1 μM
Experimental: FIG. 9. Comparison of linear and cyclic RPP. […] Efficacy on was assessed by measuring changes in (A) BDNF, (B) NGF, and (C) KV4.3 transcript levels. N=1
Plasmids. RPP (SEQ ID NOS: 2 and 4): One segment of this construct containing T7 promoter, CPP, and His tag was synthesized as a gBlock (Table 8) by IDT and amplified with primers described in Table 8. The PCR reaction (20 μL) was initially heated at 95° C. for 2.5 min followed by 30 cycles of denaturation at 94° C. for 15 sec., annealing at 55° C. for 15 sec., and extension at 72° C. for 30 seconds. Following amplification, PCR fragment was gel-purified by the QIAGEN gel-band purification kit according to manufacturer's protocol.
In vitro Expression. RPP (Table 8) or CP (Table 9) were expressed in vitro using the PURE Express In Vitro Protein Synthesis Kit (New England Biolabs). The RPP (SEQ ID NOS: 2 and 4) or CP sequence was amplified from the RPP (SEQ ID NOS: 2 and 4) or CP expression constructs (Table 8 and 9) with primers listed in Table 8, and gel-purified by the QIAGEN gel-band purification kit. The PCR reaction (20 μL) was initially heated at 95° C. for 2.5 min followed by 30 cycles of denaturation at 94° C. for 15 sec., annealing at 55° C. for 15 sec., and extension at 72° C. for 30 sec. Then, 15 μL of the purified PCR fragment was mixed with 10 μL of Solution A and 7.5 μL of Solution B of the PURE Express In Vitro Protein Synthesis Kit (New England Biolabs) and incubated 2 hours at 37° C. Next, 2 μL of DNAse I was added and incubated for 20 min at 37° C.
Purification. RPP (SEQ ID NOS: 2 and 4) and CP: The final solution from the in vitro expression step was diluted to 100 μL and filtered through the Amicon Ultracel 0.5 mL-100K columns (Sigma) to remove ribosomes. The flow through was added to 100 μL of washed Ni-NTA Magnetic Agarose Beads (Qiagen) and was washed with wash buffer as described by the manufacturer.
Cyclization. The RPP (SEQ ID NO: 2) or was cyclized by mixing the beads with 500 μL of the cyclization solution which was made by mixing 2.65 mL of the 1.33×PBS (66.5 mM phosphate buffer, 400 mM NaCl) with 1.32 mL of dibromo-m-xylene solution in acetonitrile (2.5 mg/mL). Following incubation with the cyclization solution beads were washed once with wash buffer I (PBS with 25 mM imidazole, 0.5 μL/mL of mercaptoethanol), once with wash buffer II (PBS with 25 mM imidazole, 0.5 mM TCEP), twice with wash buffer III (PBS with 25 mM imidazole) and eluted with 50 μL of the elution buffer (PBS with 500 mM imidazole). Imidazole was removed using Bio-Rad Micro Bio-Spin Chromatography columns.
Dosing and Cell Culture. NBFL cells (FIG. 9) grown in 6 well were dosed with 1 μM of linear (SEQ ID NO: 2) or cyclic (SEQ ID NO: 2) RPP (Table 8) or control peptide (Table 9) for 16 or 48 hours.
After dosing, cells were lysed and assessed for BDNF, NGF, and KV4.3 mRNA levels (FIG. 9). All of the primers used have been described except for NGF: forward: 5′[…]3′ (SEQ ID NO: 338) and reverse 5′[…]3′ (SEQ ID NO: 339).

## MCTEDLEPPEPPLPKENCGSGSGRKKRRQRRRGGSGSLGHHHHHHGTGY (linker 2-18 via mXylylene (inferred)) [SEQ ID NO: 2, RPP-CPP-His, cyclized with dibromo-m-xylene]
16 h
  Increase, BDNF mRNA: 5x
  Increase, KV4.3 mRNA: 5x
  Increase, NGF mRNA: 3.2x
48 h
  Increase, BDNF mRNA: 2.3x
  Increase, KV4.3 mRNA: 5x
  Increase, NGF mRNA: 1.7x
48 h, listed as Cyclic
  Increase, BDNF mRNA: 1.75× x
  Increase, KV4.3 mRNA: 25× x
  Increase, NGF mRNA: 1.87 x
